≈ marks a conversion by molar mass, not a printed value. Like-named read-outs stand apart in the source and are kept apart here.
Experiments:
Format in all cases: cell-based
[1] = tested on: Anaerobic Gram positive cocci; experiment: MIC, ATCC laboratory strains (NCCLS guidelines); conditions: n=4
Method: The activity of Compound I was tested against laboratory strains of different species of bacteria using NCCLS antimicrobial susceptibility testing guidelines. […] Including MRSA and Enterococcus sp. Including VRE (Table. 2).

Clostridium difficile = experiment: MIC, 207 clinical isolates of C. difficile
Description: Compound I was additionally tested against anaerobic clinical isolates and against aerobic bacteria. […] The compound was also active against clinical strains of Staphylococcus sp. and Enterococcus sp.

C. glycolicum = experiment: microbe, parasite or virus in culture; conditions: clinical isolates, n=9
[2] = tested on: Other anaerobic Gram negative rods; experiment: organism not typed; conditions: clinical gastrointestinal isolates, n=51
[3] = tested on: Non-spore forming Gram positive rods; experiment: organism not typed; conditions: clinical gastrointestinal isolates, n=64
[4] = tested on: Streptococcus milleri group; experiment: microbe, parasite or virus in culture; conditions: clinical gastrointestinal isolates, n=14
Streptococcus sp. = experiment: microbe, parasite or virus in culture; conditions: clinical gastrointestinal isolates, n=9
Enterobacter sp. = experiment: microbe, parasite or virus in culture; conditions: clinical gastrointestinal isolates, n=20
Klebsiella sp. = experiment: microbe, parasite or virus in culture; conditions: clinical gastrointestinal isolates, n=10
Pseudomonas aeruginosa = experiment: microbe, parasite or virus in culture; conditions: clinical gastrointestinal isolates, n=10
C. difficile = experiment: MIC via agar dilution, 110 genetically distinct clinical isolates of C. difficile; conditions: for MIC: Clostridioides difficile

For `CCc1c(Cl)c(O)c(Cl)c(O)c1C(=O)O[C@H]1[C@H](O)[C@H](OC)[C@H](OC/C2=C\C=C\C[C@H](O)/C(C)=C/[C@H](CC)C(O[C@@H]3OC(C)(C)[C@@H](OC(=O)C(C)C)[C@H](O)[C@@H]3O)/C(C)=C/C(C)=C/C[C@@H](C(C)O)OC2=O)O[C@@H]1C` (stereo partly shown) [Compound I], the “Range (MIC)” value [1] was “≦0.06-1”, the MIC90 (Clostridium difficile; Clostridioides difficile, clinical isolates, n=207) was 0.008 µg/mL (≈ 0.00756 µM) and the MIC50 (Clostridium difficile; Clostridioides difficile, clinical isolates, n=207, read-out: MIC50) was 0.0019 µg/mL (≈ 0.0018 µM). The MIC50 (Clostridium difficile; clinical isolates, n=207) was 0.002 µg/mL (≈ 0.00189 µM), the “sensitivity of isolates (in words)” value (Clostridium difficile; panel of 207 C. difficile clinical isolates) was “very sensitive” and the MIC50 (C. glycolicum; Terrisporobacter glycolicus) was 0.062 µg/mL (≈ 0.0586 µM). The MIC90 (C. glycolicum; Terrisporobacter glycolicus) was 1 µg/mL (≈ 0.945 µM), the “Range (MIC)” value (C. glycolicum) was 0.062 to 1 µg/mL and the MIC50 [2] was 1020 µg/mL (≈ 968 µM). The MIC90 [2] was over 1020 µg/mL, the MIC50 [3] was 1 µg/mL (≈ 0.945 µM) and the MIC90 [3] was 32 µg/mL (≈ 30.2 µM). For the same compound, the MIC50 ([4]; Streptococcus milleri) was 32 µg/mL (≈ 30.2 µM), the MIC90 ([4]; Streptococcus milleri) was 32 µg/mL (≈ 30.2 µM) and the “Range (MIC)” value [4] was 16 to 64 µg/mL. For the same compound, the MIC50 (Streptococcus sp.; Streptococcus) was 32 µg/mL (≈ 30.2 µM), the MIC90 (Streptococcus sp.; Streptococcus) was 128 µg/mL (≈ 121 µM) and the “Range (MIC)” value (Streptococcus sp.) was 16 to 128 µg/mL. For the same compound, the MIC50 (Enterobacter sp.; Enterobacter) was over 256 µg/mL, the MIC90 (Enterobacter sp.; Enterobacter) was over 256 µg/mL and the “Range (MIC)” value (Enterobacter sp.) was over 256 µg/mL. The MIC50 (Klebsiella sp.; Klebsiella) was over 256 µg/mL, the MIC90 (Klebsiella sp.; Klebsiella) was over 256 µg/mL and the “Range (MIC)” value (Klebsiella sp.) was over 256 µg/mL. For the same compound, the MIC50 (Pseudomonas aeruginosa) was over 256 µg/mL, the MIC90 (Pseudomonas aeruginosa) was over 256 µg/mL and the “Range (MIC)” value (C. difficile; 110 clinical isolates, agar dilution) was 0.015 to 0.25 µg/mL. The MIC (C. difficile) was 0.125 µg/mL (≈ 0.118 µM), the MIC (C. difficile; isolate ORG ID 61 5930, read-out: MIC) was 0.03 µg/mL (≈ 0.0284 µM) and the MIC (C. difficile; isolate ORG ID 63 6029, read-out: MIC) was 0.25 µg/mL (≈ 0.236 µM). The MIC (C. difficile; isolate ORG ID 65 5967, read-out: MIC) was 0.06 µg/mL (≈ 0.0567 µM), the MIC (C. difficile; isolate ORG ID 66 6366, read-out: MIC) was 0.015 µg/mL (≈ 0.0142 µM) and the MIC (C. difficile; isolate ORG ID 68 6368, read-out: MIC) was 0.03 µg/mL (≈ 0.0284 µM). The MIC (C. difficile; isolate ORG ID 69 6370, read-out: MIC) was 0.25 µg/mL (≈ 0.236 µM), the MIC (C. difficile; isolate ORG ID 73 6382, read-out: MIC) was 0.25 µg/mL (≈ 0.236 µM) and the MIC (C. difficile; isolate ORG ID 77 6390, read-out: MIC) was 0.06 µg/mL (≈ 0.0567 µM). It also gave an MIC (C. difficile; isolate ORG ID 78 6392, read-out: MIC) of 0.015 µg/mL (≈ 0.0142 µM), an MIC (C. difficile; isolate ORG ID 82 6329, read-out: MIC) of 0.06 µg/mL (≈ 0.0567 µM) and an MIC (C. difficile; isolate ORG ID 83 6330, read-out: MIC) of 0.06 µg/mL (≈ 0.0567 µM). The MIC (C. difficile; isolate ORG ID 85 6332, read-out: MIC) was 0.06 µg/mL (≈ 0.0567 µM), the MIC (C. difficile; isolate ORG ID 86 6333, read-out: MIC) was 0.03 µg/mL (≈ 0.0284 µM) and the MIC (C. difficile; isolate ORG ID 89 6336, read-out: MIC) was 0.25 µg/mL (≈ 0.236 µM). For the same compound, the MIC (C. difficile; isolate ORG ID 94 6343, read-out: MIC) was 0.015 µg/mL (≈ 0.0142 µM), the MIC (C. difficile; isolate ORG ID 96 6348, read-out: MIC) was 0.06 µg/mL (≈ 0.0567 µM) and the MIC (C. difficile; isolate ORG ID 97 6349, read-out: MIC) was 0.25 µg/mL (≈ 0.236 µM). It also gave an MIC (C. difficile; isolate ORG ID 101 6354, read-out: MIC) of 0.015 µg/mL (≈ 0.0142 µM), an MIC (C. difficile; isolate ORG ID 102 6355, read-out: MIC) of 0.016 µg/mL (≈ 0.0151 µM) and an MIC (C. difficile; isolate ORG ID 103 6068, read-out: MIC) of 0.06 µg/mL (≈ 0.0567 µM). It also gave an MIC (C. difficile; isolate ORG ID 104 6060, read-out: MIC) of 0.03 µg/mL (≈ 0.0284 µM), an MIC (C. difficile; isolate ORG ID 105 6071, read-out: MIC) of 0.03 µg/mL (≈ 0.0284 µM) and an MIC (C. difficile; isolate ORG ID 106 6078, read-out: MIC) of 0.03 µg/mL (≈ 0.0284 µM). It also gave an MIC (C. difficile; isolate ORG ID 107 6079, read-out: MIC) of 0.06 µg/mL (≈ 0.0567 µM), an MIC (C. difficile; isolate ORG ID 109 6274, read-out: MIC) of 0.015 µg/mL (≈ 0.0142 µM) and an MIC (C. difficile; isolate ORG ID 111 6279, read-out: MIC) of 0.03 µg/mL (≈ 0.0284 µM). For the same compound, the MIC (C. difficile; isolate ORG ID 112 6280, read-out: MIC) was 0.06 µg/mL (≈ 0.0567 µM), the MIC (C. difficile; isolate ORG ID 113 6304, read-out: MIC) was 0.06 µg/mL (≈ 0.0567 µM) and the MIC (C. difficile; isolate ORG ID 114 386, read-out: MIC) was 0.06 µg/mL (≈ 0.0567 µM). It also gave an MIC (C. difficile; isolate ORG ID 115 5985, read-out: MIC) of 0.015 µg/mL (≈ 0.0142 µM), an MIC (C. difficile; isolate ORG ID 116 5702, read-out: MIC) of 0.06 µg/mL (≈ 0.0567 µM) and an MIC (C. difficile; isolate ORG ID 117 6026, read-out: MIC) of 0.06 µg/mL (≈ 0.0567 µM). It also gave an MIC (C. difficile; isolate ORG ID 120 6057, read-out: MIC) of 0.03 µg/mL (≈ 0.0284 µM), an MIC (C. difficile; isolate ORG ID 121 6072, read-out: MIC) of 0.06 µg/mL (≈ 0.0567 µM) and an MIC (C. difficile; isolate ORG ID 122 6111, read-out: MIC) of 0.25 µg/mL (≈ 0.236 µM). For the same compound, the MIC (C. difficile; isolate ORG ID AA2 4380, read-out: MIC) was 0.015 µg/mL (≈ 0.0142 µM), the MIC (C. difficile; isolate ORG ID AB2 1725, read-out: MIC) was 0.06 µg/mL (≈ 0.0567 µM) and the MIC (C. difficile; isolate ORG ID AC1 1546, read-out: MIC) was 0.06 µg/mL (≈ 0.0567 µM). The MIC (C. difficile; isolate ORG ID AJ1 1557, read-out: MIC) was 0.06 µg/mL (≈ 0.0567 µM), the MIC (C. difficile; isolate ORG ID AL1 1753, read-out: MIC) was 0.06 µg/mL (≈ 0.0567 µM) and the MIC (C. difficile; isolate ORG ID AV1 941, read-out: MIC) was 0.25 µg/mL (≈ 0.236 µM). It also gave an MIC (C. difficile; isolate ORG ID B1 832, read-out: MIC) of 0.06 µg/mL (≈ 0.0567 µM).

Reference: patent US20070173462A1, “Treatment of diseases associated with the use of antibiotics” (Optimer Pharmaceuticals, Inc., priority 2004, published 2007)
